# Target: T1, AM2 receptor (CALCRL+RAMP3) (Homo sapiens, UniProt O60896+Q16602)
# T1 construct: host or cells: 1321N1
# Experiment: AM2 receptor inhibition, LANCE TR-FRET cAMP agonist-antagonist competition assay
# Format: cell-based
# Conditions: inhibition of AM induced cAMP activation; 1321N1 cells transfected with CALCRL+RAMP3; read-out: AM2 pIC50 (converted)
# Protocol: Compounds were assessed for their ability to inhibit ligand-induced elevations of cAMP, using the Perkin Elmer LANCE cAMP assay using commercially-available cells expressing a specific receptor of interest using the following general procedure:
# Compounds were prepared in dimethyl sulfoxide (DMSO—99.9% pure) (Sigma Aldrich, Cat #: D4540) added to powder stocks to produce a 20 mM solution (100% DMSO) that was sonicated at 37° C. for 10 minutes to fully dissolve the compounds. The 20 mM stocks were diluted further in DMSO to produce a 2 mM solution that was sonicated at 37° C. for 10 minutes. 2 mM stocks were dissolved in assay/stimulation buffer to produce a 400 μM solution that was sonicated at 37° C. for 10 minutes for all cAMP assays. All stocks were stored at −20° C. Then serial dilution (Dilution factor 10) was performed to achieve the desire experimental concentrations.
# Competition assays were performed according to the manufactures instructions using LANCE® TR-FRET cAMP assay kit (Perkin Elmer, Cat #: AD0264). Serial dilutions (3 μl/well) of the molecules were plated in a 384-well OptiPlate (Perkin Elmer, Cat #: 6007299) in duplicates. Appropriate controls (100% stimulation: Forskolin and 0% stimulation: Vehicle control) (6 μl/well) were included in each plate for data normalization. Following the compound addition, 6 μl of G-protein coupled receptor overexpressing cells/Alexa Fluor antibody solution (1:100 dilution) was added in each well at a desired density of 2500 cells/well. The overexpressing cell lines were purchased from DiscoveRx, Birmingham, UK. After spinning the plate at 1000 rpm for 1 minute and vortexing briefly, the cells were pre-incubated with the compounds for 30 minutes at room temperature (covered). Then 3 μl of the equivalent peptide ligand (EC50 dose) was added to all the wells except vehicle and forskolin controls. The plate were then spun down at 1000 rpm for 1 minute and once finished they were vortexed briefly and covered. Cells were stimulated in the presence of the ligands for 15 minutes at room temperature. After stimulation 12 μl of detection mix (Europium-Chelate streptavidin/biotinylated cAMP tracer solution) was added to all wells and incubated for 60 minutes at room temperature. The plate was then read on the Enspire multimode Plate reader (Perkin Elmer), at; 320/340 nm excitation and 615/665 nm emission was recorded.
# • 28 mL Hank's Balanced salt solution (+MgCl2, +CaCl2)—(Thermo Fisher Cat #:14170112) • 150 μl HEPES (1M)—(Thermo Fisher Cat #:15630080) • 400 μl Stabilizer (DTPA) Purified BSA (7.5%)—(Perkin Elmer, Cat #: CR84-100) • 60 μl IBMX (250 mM)—(Sigma Aldrich, Cat #: 15879) Specific cAMP/Agonist-Antagonist Competition Assays
# The ability of a compound to inhibit the AM induced cAMP activation in AM2 receptor-expressing cells (1321N1 cells transfected with CALCRL+RAMP3, sourced from DiscoverX catalogue number 95-0169C6) was assessed using the protocol above.
# T1 sequence (Q16602 23-461): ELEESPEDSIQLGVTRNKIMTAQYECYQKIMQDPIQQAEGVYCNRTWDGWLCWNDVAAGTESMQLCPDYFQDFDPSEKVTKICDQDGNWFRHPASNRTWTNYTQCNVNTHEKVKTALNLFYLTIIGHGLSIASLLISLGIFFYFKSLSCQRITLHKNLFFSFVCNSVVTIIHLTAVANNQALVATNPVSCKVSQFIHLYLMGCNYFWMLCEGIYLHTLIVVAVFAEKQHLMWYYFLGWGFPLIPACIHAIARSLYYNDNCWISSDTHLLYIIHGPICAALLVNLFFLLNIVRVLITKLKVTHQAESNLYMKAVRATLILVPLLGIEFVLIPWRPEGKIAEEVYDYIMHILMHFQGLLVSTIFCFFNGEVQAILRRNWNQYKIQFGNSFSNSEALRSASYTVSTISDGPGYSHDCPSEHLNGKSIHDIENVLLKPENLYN
# T1 sequence (O60896 24-148): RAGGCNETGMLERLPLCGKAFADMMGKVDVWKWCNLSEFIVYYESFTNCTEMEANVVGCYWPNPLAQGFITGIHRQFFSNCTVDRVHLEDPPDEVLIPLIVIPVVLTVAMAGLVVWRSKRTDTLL
row,IC50 [µM],Compound
1,0.324,"CC(C)(C)C(=O)N(CC(=O)Nc1ccc2c(c1)CC1(C2)C(=O)Nc2ncccc21)Cc1ccccc1CNCC(F)F (stereo not drawn) [Example 3, N-(2-(((2,2-Difluoroethyl)amino)methyl)benzyl)-N-(2-oxo-2-((2′-oxo-1,1′,2′,3-tetrahydrospiro[indene-2,3′-pyrrolo[2,3-b]pyridine]-5-yl)amino)ethyl)pivalamide]"
2,0.0603,"CC(C)(C)C(=O)N(CC(=O)Nc1ccc2c(c1)CC1(C2)C(=O)Nc2ncccc21)Cc1ccccc1CN1CCCC1 (stereo not drawn) [Example 4, N-(2-Oxo-2-((2′-oxo-1,1′,2′,3-tetrahydrospiro[indene-2,3′-pyrrolo[2,3-b]pyridine]-5-yl)amino)ethyl)-N-(2-(pyrrolidin-1-ylmethyl)benzyl)pivalamide]"
3,0.513,"CC(C)(C)C(=O)N(CC(=O)Nc1ccc2c(c1)CC1(C2)C(=O)Nc2ncccc21)Cc1ccccc1CNCC(F)(F)F (stereo not drawn) [Example 6, N-(2-Oxo-2-((2′-oxo-1,1′,2′,3-tetrahydrospiro[indene-2,3′-pyrrolo[2,3-b]pyridine]-5-yl)amino)ethyl)-N-(2-(((2,2,2-trifluoroethyl)amino)methyl)benzyl)pivalamide]"
4,0.126,"CN(C)CCNCc1ccccc1CN(CC(=O)Nc1ccc2c(c1)CC1(C2)C(=O)Nc2ncccc21)C(=O)C(C)(C)C (stereo not drawn) [Example 7, N-(2-(((2-(Dimethylamino)ethyl)amino)methyl)benzyl)-N-(2-oxo-2-((2′-oxo-1,1′,2′,3-tetrahydrospiro[indene-2,3′-pyrrolo[2,3-b]pyridine]-5-yl)amino)ethyl)pivalamide]"
5,0.166,"CC(C)(C)C(=O)N(CC(=O)Nc1ccc2c(c1)CC1(C2)C(=O)Nc2ncccc21)Cc1ccccc1CNCC1CC1 (stereo not drawn) [Example 8, N-(2-(((Cyclopropylmethyl)amino)methyl)benzyl)-N-(2-oxo-2-((2′-oxo-1,1′,2′,3-tetrahydrospiro[indene-2,3′-pyrrolo[2,3-b]pyridine]-5-yl)amino)ethyl)pivalamide]"
6,0.24,"CC(C)(C)C(=O)N(CC(=O)Nc1ccc2c(c1)CC1(C2)C(=O)Nc2ncccc21)Cc1ccccc1CNCc1ncc[nH]1 (stereo not drawn) [Example 9, N-(2-((((1H-Imidazol-2-yl)methyl)amino)methyl)benzyl)-N-(2-oxo-2-((2′-oxo-1,1′,2′,3-tetrahydrospiro[indene-2,3′-pyrrolo[2,3-b]pyridine]-5-yl)amino)ethyl)pivalamide]"
7,0.0912,"CC(C)(C)C(=O)N(CC(=O)Nc1ccc2c(c1)CC1(C2)C(=O)Nc2ncccc21)Cc1ccccc1CN1CC(F)C1 (stereo not drawn) [Example 10, N-(2-((3-Fluoroazetidin-1-yl)methyl)benzyl)-N-(2-oxo-2-((2′-oxo-1,1′,2′,3-tetrahydrospiro[indene-2,3′-pyrrolo[2,3-b]pyridin]-5-yl)amino)ethyl)pivalamide]"
8,0.398,"CC(C)(C)C(=O)N(CC(=O)Nc1ccc2c(c1)CC1(C2)C(=O)Nc2ncccc21)Cc1ccccc1CN1CC(F)(F)C1 (stereo not drawn) [Example 11, N-(2-((3,3-Difluoroazetidin-1-yl)methyl)benzyl)-N-(2-oxo-2-((2′-oxo-1,1′,2′,3-tetrahydrospiro[indene-2,3′-pyrrolo[2,3-b]pyridin]-5-yl)amino)ethyl)pivalamide]"
9,0.186,"CN(C)CCCNCc1ccccc1CN(CC(=O)Nc1ccc2c(c1)CC1(C2)C(=O)Nc2ncccc21)C(=O)C(C)(C)C (stereo not drawn) [Example 12, N-(2-(((3-(Dimethylamino)propyl)amino)methyl)benzyl)-N-(2-oxo-2-((2′-oxo-1,1′,2′,3-tetrahydrospiro[indene-2,3′-pyrrolo[2,3-b]pyridin]-5-yl)amino)ethyl)pivalamide]"
10,0.0331,"CC(C)(C)C(=O)N(CC(=O)Nc1ccc2c(c1)CC1(C2)C(=O)Nc2ncccc21)Cc1ccccc1CNCCO (stereo not drawn) [Example 13, N-(2-(((2-Hydroxyethyl)amino)methyl)benzyl)-N-(2-oxo-2-((2′-oxo-1,1′,2′,3-tetrahydrospiro[indene-2,3′-pyrrolo[2,3-b]pyridin]-5-yl)amino)ethyl)pivalamide]"
11,0.0123,"CC(C)(C)C(=O)N(CC(=O)Nc1ccc2c(c1)CC1(C2)C(=O)Nc2ncccc21)Cc1ccccc1CNCCF (stereo not drawn) [Example 17, N-(2-(((2-Fluoroethyl)amino)methyl)benzyl)-N-(2-oxo-2-((2′-oxo-1,1′,2′,3-tetrahydrospiro[indene-2,3′-pyrrolo[2,3-b]pyridin]-5-yl)amino)ethyl)pivalamide]"
12,0.0331,"COCCNCc1ccccc1CN(CC(=O)Nc1ccc2c(c1)CC1(C2)C(=O)Nc2ncccc21)C(=O)C(C)(C)C (stereo not drawn) [Example 18, N-(2-(((2-Methoxyethyl)amino)methyl)benzyl)-N-(2-oxo-2-((2′-oxo-1,1′,2′,3-tetrahydrospiro[indene-2,3′-pyrrolo[2,3-b]pyridin]-5-yl)amino)ethyl)pivalamide]"
13,0.0891,"CC(C)NCc1ccccc1CN(CC(=O)Nc1ccc2c(c1)CC1(C2)C(=O)Nc2ncccc21)C(=O)C(C)(C)C (stereo not drawn) [Example 19, N-(2-((Isopropylamino)methyl)benzyl)-N-(2-oxo-2-((2′-oxo-1,1′,2′,3-tetrahydrospiro[indene-2,3′-pyrrolo[2,3-b]pyridin]-5-yl)amino)ethyl)pivalamide]"
14,0.105,"CC(C)(C)C(=O)N(CC(=O)Nc1ccc2c(c1)CC1(C2)C(=O)Nc2ncccc21)Cc1ccccc1CNC1CCC1 (stereo not drawn) [Example 20, N-(2-((Cyclobutylamino)methyl)benzyl)-N-(2-oxo-2-((2′-oxo-1,1′,2′,3-tetrahydrospiro[indene-2,3′-pyrrolo[2,3-b]pyridin]-5-yl)amino)ethyl)pivalamide]"
15,0.0132,"CNC(C)c1ccccc1CN(CC(=O)Nc1ccc2c(c1)CC1(C2)C(=O)Nc2ncccc21)C(=O)C(C)(C)C (stereo not drawn) [Example 23, N-(2-(1-(Methylamino)ethyl)benzyl)-N-(2-oxo-2-((2′-oxo-1,1′,2′,3-tetrahydrospiro[indene-2,3′-pyrrolo[2,3-b]pyridin]-5-yl)amino)ethyl)pivalamide]"
16,0.0347,"CC(c1ccccc1CN(CC(=O)Nc1ccc2c(c1)CC1(C2)C(=O)Nc2ncccc21)C(=O)C(C)(C)C)N(C)C (stereo not drawn) [Example 24, N-(2-(1-(Dimethylamino)ethyl)benzyl)-N-(2-oxo-2-((2′-oxo-1,1′,2′,3-tetrahydrospiro[indene-2,3′-pyrrolo[2,3-b]pyridin]-5-yl)amino)ethyl)pivalamide]"
17,0.0759,"CC(c1ccccc1CN(CC(=O)Nc1ccc2c(c1)CC1(C2)C(=O)Nc2ncccc21)C(=O)C(C)(C)C)N1CCC1 (stereo not drawn) [Example 25, N-(2-(1-(Azetidin-1-yl)ethyl)benzyl)-N-(2-oxo-2-((2′-oxo-1,1′,2′,3-tetrahydrospiro[indene-2,3′-pyrrolo[2,3-b]pyridin]-5-yl)amino)ethyl)pivalamide]"
18,0.0302,"CCNCc1ccccc1CN(CC(=O)Nc1ccc2c(c1)CC1(C2)C(=O)Nc2ncccc21)C(=O)C(C)(C)C (stereo not drawn) [Example 27, N-(2-((Ethylamino)methyl)benzyl)-N-(2-oxo-2-((2′-oxo-1,1′,2′,3-tetrahydrospiro[indene-2,3′-pyrrolo[2,3-b]pyridin]-5-yl)amino)ethyl)pivalamide]"
19,0.49,"C=CCN(CC=C)CCc1ccccc1CN(CC(=O)Nc1ccc2c(c1)CC1(C2)C(=O)Nc2ncccc21)C(=O)C(C)(C)C (stereo not drawn) [Example 28, N-(2-(2-(Diallylamino)ethyl)benzyl)-N-(2-oxo-2-((2′-oxo-1,1′,2′,3-tetrahydrospiro[indene-2,3′-pyrrolo[2,3-b]pyridin]-5-yl)amino)ethyl)pivalamide]"
20,0.0295,"CN(C)Cc1ccccc1CN(CC(=O)Nc1ccc2c(c1)CC1(C2)C(=O)Nc2ncccc21)C(=O)C(C)(C)C (stereo not drawn) [Example 30, N-(2-((Dimethylamino)methyl)benzyl)-N-(2-oxo-2-((2′-oxo-1,1′,2′,3-tetrahydrospiro[indene-2,3′-pyrrolo[2,3-b]pyridin]-5-yl)amino)ethyl)pivalamide]"
21,0.0123,"CNCc1ccccc1CN(C(=O)C(C)(C)C)[C@@H](C)C(=O)Nc1ccc2c(c1)CC1(C2)C(=O)Nc2ncccc21 (stereo partly drawn) [Example 34, N-(2-((Methylamino)methyl)benzyl)-N-((2S)-1-oxo-1-((2′-oxo-1,1′,2′,3-tetrahydrospiro[indene-2,3′-pyrrolo[2,3-b]pyridin]-5-yl)amino)propan-2-yl)pivalamide]"
